The values that follow come from patent US6900219B2, “ABCA-1 elevating compounds” (CV Therapeutics, Inc., priority 2002, dated 2005).

The experiment deals with ABCA-1 gene. Description: compounds tested and found to elevate cellular expression of the ABCA-1 gene (Examples 1-6; test not named). Format: cell-based. The method, then: Activity testing is conducted as described in those patents and patent applications referenced above, and in the Examples below, and by methods apparent to one skilled in the art.
With “2-[(4-methylethylphenyl)carbonylamino]-1,3-thiazoline-4-carboxylic acid”, the “cellular expression of the ABCA-1 gene” value is “elevate cellular expression of the ABCA-1 gene”.

As for “2-[({2-[4-(6-chlorobenzothiazol-2-yl)piperazinyl]ethyl}oxycarbonyl)methylthio]acetic acid”, the “cellular expression of the ABCA-1 gene” value is “elevate cellular expression of the ABCA-1 gene”. Then “6-(2-aminophenyl)-3-(methylethylthio)-2H-1,2,4-triazin-5-one”, with “elevate cellular expression of the ABCA-1 gene”; and `CCc1cc(OC(=O)c2ccco2)n(-c2cccc(Cl)c2)n1` [1-(3-chlorophenyl)-3-ethylpyrazol-5-yl furan-2-carboxylate], with “elevate cellular expression of the ABCA-1 gene”; and `CCCc1c(C(=O)N2CCN(C(=O)C(CC)c3ccccc3)C(C)C2)cnn1-c1nc(-c2cccc(OC)c2)cs1` (stereo not drawn) [1-(4-{1-[4-(3-methoxy-phenyl)-thiazol-2-yl]-5-propyl-1H-pyrazole-4-carbonyl}-2-methyl-piperazin-1-yl)-2-phenyl-butan-1-one], with “elevate cellular expression of the ABCA-1 gene”. In the case of `CCc1c(C(=O)N2CCN(C(=O)C(c3ccccc3)c3ccccc3)C(C)C2)cnn1-c1nc(-c2ccc(Cl)cc2)cs1` (stereo not drawn) [1-(4-{1-[4-(4-chloro-phenyl)-thiazol-2-yl]-5-ethyl-1H-pyrazole-4-carbonyl}-2-methyl-piperazin-1-yl)-2,2-diphenyl-ethanone], the “cellular expression of the ABCA-1 gene” value was “elevate cellular expression of the ABCA-1 gene”. In the case of `CCc1c(C(=O)N2CCN(C(=O)C(CC)c3ccccc3)C(C)C2)cnn1-c1nc(-c2ccc(Cl)cc2)cs1` (stereo not drawn) [1-(4-{1-[4-(4-chloro-phenyl)-thiazol-2-yl]-5-ethyl-1H-pyrazole-4-carbonyl}-2-methyl-piperazin-1-yl)-2-phenyl-butan-1-one], the “cellular expression of the ABCA-1 gene” value is on record as “elevate cellular expression of the ABCA-1 gene”.

`CCc1c(C(=O)N2CCN(C(=O)C(c3ccccc3)c3ccccc3)C(C)C2)cnn1-c1nc(-c2ccc(OC)cc2)cs1` (stereo not drawn) [1-(4-{5-ethyl-1-[4-(4-methoxy-phenyl)-thiazol-2-yl]-1H-pyrazole-4-carbonyl}-2-methyl-piprazin-1-yl)-2,2-diphenyl-ethanone]: the “cellular expression of the ABCA-1 gene” value is “elevate cellular expression of the ABCA-1 gene”. The same measure for `CCc1c(C(=O)N2CCN(C(=O)C(C)C)C(C)C2)cnn1-c1nc(-c2ccc(OC)cc2)cs1` (stereo not drawn) [1-(4-{5-ethyl-1-[4-(4-methoxy-phenyl)-thiazol-2-yl]-1H-pyrazole-4-carbonyl}-2-metyl-piperazin-1-yl)-2-methyl-propan-1-one]: “elevate cellular expression of the ABCA-1 gene”; for `CCCCCCCC(=O)N1CCC2(CC1)OCCO2` [1-(8-aza-1,4-dioxaspiro[4.5]dec-8-yl)octan-1-one]: “elevate cellular expression of the ABCA-1 gene”. Then `O=[N+]([O-])c1ccc(OCCOc2ccc([N+](=O)[O-])cc2)cc1` [1-nitro-4-[2-(4-nitrophenoxy)ethoxy]benzene], with “elevate cellular expression of the ABCA-1 gene”. The same measure for `COc1ccccc1NC(=O)N(CCc1ccccc1)C(C)c1nc2ccccc2c(=O)n1-c1ccc(Br)cc1` (stereo not drawn) [1-{1-[3-(4-bromophenyl)-4-oxo-3,4-dihydro-quinazolin-2-yl]-ethyl}-3-(2-methoxy-phenyl-1-phenethylurea]: “elevate cellular expression of the ABCA-1 gene”; for `COc1ccc(-c2nc3cc(/N=C/c4cccc([N+](=O)[O-])c4)ccc3o2)cc1` [1-{5-[(1E)-1-aza-2-(3-nitrophenyl)vinyl]benzoxazol-2-yl}-4-methoxybenzene]: “elevate cellular expression of the ABCA-1 gene”.

Take `C1=C(c2ccccc2)Nc2nc3ccccc3n2C1c1ccccc1` (stereo not drawn) [2,4-diphenyl-1,4,5-trihydropyrimidino[1,2-a]benzimidazole]: the “cellular expression of the ABCA-1 gene” value is “elevate cellular expression of the ABCA-1 gene”.

As for `Nc1cc(C(F)(F)F)ccc1N1CCc2ccccc2C1` [2-(2-1,2,3,4-tetrahydroisoquinolyl)-5-(trifluoromethyl)phenylamine], the “cellular expression of the ABCA-1 gene” value is recorded as “elevate cellular expression of the ABCA-1 gene”. The same measure for `O=C(NC1=NC(C(=O)O)CS1)c1ccc2c(c1)OCO2` (stereo not drawn) [2-(2H-benzo[3,4-d]1,3-dioxolan-5-ylcarbonylamino)-1,3-thiazoline-4-carboxylic acid]: “elevate cellular expression of the ABCA-1 gene”; for `Nc1nc(-c2ccc(Cl)cc2)nc2sc3c(c12)CCCCC3` [2-(4-chlorophenyl)-5,6,7,8,9-pentahydrocyclohepta[1,2-b]pyrimidino[5,4-d]thiophene-4-ylamine]: “elevate cellular expression of the ABCA-1 gene”.

Take `Nc1ccccc1-c1nc(-c2ccc(Cl)cc2)no1` [2-[3-(4-chlorophenyl)-1,2,4-oxadiazol-5-yl]phenylamine]: the “cellular expression of the ABCA-1 gene” value is recorded as “elevate cellular expression of the ABCA-1 gene”.

For the compound `CC(C)(C)c1ccc(-c2nc3cccc(F)c3c(=O)o2)cc1` [2-[4-(tert-butyl)phenyl]-5-fluorobenzo[d]1,3-oxazin-4-one], the “cellular expression of the ABCA-1 gene” value is “elevate cellular expression of the ABCA-1 gene”. Then `COc1ccc(/C=C/c2nc3ccccc3c(=O)[nH]2)cc1OC` [2-[(1E)-2-(3,4-dimethoxyphenyl)vinyl]-3-hydroquinazolin-4-one], with “elevate cellular expression of the ABCA-1 gene”; and `O=c1oc(/C=C/c2ccc(Cl)cc2)nc2ccccc12` [2-[(1E)-2-(4-chlorophenyl)vinyl]benzo[d]1,3-oxazin-4-one], with “elevate cellular expression of the ABCA-1 gene”; and `O=C(NC1=NC(C(=O)O)CS1)c1ccccc1C(F)(F)F` (stereo not drawn) [2-[(2-trifluoromethylphenyl)carbonylamino]-1,3-thiazoline-4-carboxylic acid], with “elevate cellular expression of the ABCA-1 gene”. The same measure for `COc1cc(C(=O)NC2=NC(C(=O)O)CS2)cc(OC)c1OC` (stereo not drawn) [2-[(3,4,5-trimethoxyphenyl)carbonylamino]-1,3-thiazoline-4-carboxylic acid]: “elevate cellular expression of the ABCA-1 gene”; for `O=C(NC1=NC(C(=O)O)CS1)c1ccc(Cl)c(Cl)c1` (stereo not drawn) [2-[(3,4-dichlorophenyl)carbonylamino]-1,3-thiazoline-4-carboxylic acid]: “elevate cellular expression of the ABCA-1 gene”.

For the compound `O=C(NC1=NC(C(=O)O)CS1)c1cc(C(F)(F)F)cc(C(F)(F)F)c1` (stereo not drawn) [2-[(3,5-bistrifluoromethylphenyl)carbonylamino]-1,3-thiazoline-4-carboxylic acid], the “cellular expression of the ABCA-1 gene” value is “elevate cellular expression of the ABCA-1 gene”.

In the case of `COc1cccc(C(=O)NC2=NC(C(=O)O)CS2)c1` (stereo not drawn) [2-[(3-methoxyphenyl)carbonylamino]-1,3-thiazoline-4-carboxylic acid], the “cellular expression of the ABCA-1 gene” value is reported as “elevate cellular expression of the ABCA-1 gene”. With `COc1ccc(C(=O)NC2=NC(C(=O)O)CS2)cc1` (stereo not drawn) [2-[(4-methoxyphenyl)carbonylamino]-1,3-thiazoline-4-carboxylic acid], the “cellular expression of the ABCA-1 gene” value was “elevate cellular expression of the ABCA-1 gene”. Then `Cc1ccc(C(=O)NC2=NC(C(=O)O)CS2)cc1` (stereo not drawn) [2-[(4-methylphenyl)carbonylamino]-1,3-thiazoline-4-carboxylic acid], with “elevate cellular expression of the ABCA-1 gene”; and `Cc1ccc2nc(-c3ccc(NC(=O)c4ccco4)cc3)sc2c1` [2-furyl-N-[4-(6-methylbenzothiazol-2-yl)phenyl]carboxamide], with “elevate cellular expression of the ABCA-1 gene”.

On to `CS(=O)(=O)c1ccc2nc(NC(=O)c3ccco3)sc2c1` [2-furyl-N-[6-(methylsulfonyl)benzothiazol-2-yl]carboxamide], for which the “cellular expression of the ABCA-1 gene” value is reported as “elevate cellular expression of the ABCA-1 gene”. The same measure for `O=C(Nc1ccc2c(c1)CCC2)c1ccco1` [2-furyl-N-indan-5-ylcarboxamide]: “elevate cellular expression of the ABCA-1 gene”; for `Cc1c(Nc2nc(-c3ccc4ccccc4c3)cs2)cccc1C(=O)O` [2-methyl-3-[(4-(2-naphthyl)(1,3-thiazol-2-yl))amino]benzoic acid]: “elevate cellular expression of the ABCA-1 gene”; for `O=C(NCCc1ccccc1)c1ccc2ccccc2c1` [2-naphthyl-N-(2-phenylethyl)carboxamide]: “elevate cellular expression of the ABCA-1 gene”. The same measure for `O=C(Nc1ncc(-c2ccccc2)s1)c1ccc2ccccc2c1` [2-naphthyl-N-(5-phenyl(1,3-thiazol-2-yl))carboxamide]: “elevate cellular expression of the ABCA-1 gene”; for `O=C(Nc1nccs1)c1ccccc1C(F)(F)F` [2-trifluoromethylphenyl-N-(1,3-thiazol-2-yl)carboxamide]: “elevate cellular expression of the ABCA-1 gene”.

On to `CC(C)(C)c1ccc(C(=O)NC2=NC(C(=O)O)CS2)cc1` (stereo not drawn) [2-{[4-(tert-butyl)phenyl]carbonylamino}-1,3-thiazoline-4-carboxylic acid], for which the “cellular expression of the ABCA-1 gene” value is listed as “elevate cellular expression of the ABCA-1 gene”.

With `O=C(Nc1cccc(Cl)c1)Nc1ccccc1C(=O)O` [2-{[N-(3-chlorophenyl)carbamoyl]amino}benzoic acid], the “cellular expression of the ABCA-1 gene” value was “elevate cellular expression of the ABCA-1 gene”. On to `O=C(Nc1ccc(Cl)cc1)Nc1ccccc1C(=O)O` [2-{[N-(4-chlorophenyl)carbamoyl]amino}benzoic acid], for which the “cellular expression of the ABCA-1 gene” value is “elevate cellular expression of the ABCA-1 gene”. Then `O=C(NC1=NCCS1)c1ccc2c(c1)OCO2` [2H-benzo[3,4-d]1,3-dioxolan-5-yl-N-(1,3-thiazolin-2-yl)carboxamide], with “elevate cellular expression of the ABCA-1 gene”.
